Measurements as given in patent publication US6204293A, “Inhibitors of protein isoprenyl transferases” (University of Pittsburgh, priority 1998, dated 2001).
Where a name gives a salt, the structure may show the parent alone.

What follows are molecules tested against T1, Rat brain protein farnesyltransferase (Rattus norvegicus, UniProt Q02293+Q04631) (assay: % inhibition of farnesylation, scintillation proximity assay with biotin-K Ras B fragment). Settings: Table 1; 1 × 10^-5 M.
T1 construct: Rat brain protein farnesyltransferase activity is measured; from tissue; host or cells: rat brain
T1 sequence (Q02293 whole entry, the tested form may be a part, one chain of several): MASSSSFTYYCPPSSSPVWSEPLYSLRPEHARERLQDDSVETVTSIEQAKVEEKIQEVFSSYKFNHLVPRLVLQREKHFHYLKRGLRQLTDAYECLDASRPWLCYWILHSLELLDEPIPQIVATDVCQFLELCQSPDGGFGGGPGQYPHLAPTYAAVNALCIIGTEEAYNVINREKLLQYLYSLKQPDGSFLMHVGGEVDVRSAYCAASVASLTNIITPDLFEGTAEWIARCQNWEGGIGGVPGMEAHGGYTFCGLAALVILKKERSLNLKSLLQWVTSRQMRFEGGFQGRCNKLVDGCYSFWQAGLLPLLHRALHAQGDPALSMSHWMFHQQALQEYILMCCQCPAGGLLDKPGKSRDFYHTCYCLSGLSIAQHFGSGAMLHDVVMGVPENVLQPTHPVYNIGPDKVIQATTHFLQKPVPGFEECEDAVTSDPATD
Type: biochemical
How it was run: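 Scintillation proximity read-out of farnesylation, using a biotinylated K Ras B fragment (0.1 mM final) in place of biotin-lamin. Enzyme purified from rat brain; results given as % inhibition.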

| Molecule | % inhibition at 1 × 10^-5 M [%] |
| --- | --- |
| CSCC[C@H](NC(=O)c1ccc(CNc2cccc(N(C)C)c2)cc1-c1ccccc1)C(=O)O [Example 683] | 57 |
| COc1ccc(Br)c(C(=O)Nc2ccc(C(=O)N[C@@H](CCSC)C(=O)O)c(-c3ccccc3)c2)c1 [Example 754] | 40 |
| CSCC[C@H](NC(=O)c1ccc(CNCCCN2CCOCC2)cc1-c1ccccc1)C(=O)O [Example 377] | 71 |
| CSCC[C@H](NC(=O)c1ccc(CNc2ccc(C)c(C)c2)cc1-c1ccccc1)C(=O)O [Example 704] | 67 |
| CSCC[C@H](NC(=O)c1ccc(CNc2cccc(OC(F)(F)F)c2)cc1-c1ccccc1)C(=O)O [Example 678] | 73 |
| COc1ccc(NCc2ccc(C(=O)N[C@@H](CCSC)C(=O)O)c(-c3ccccc3)c2)cc1 [Example 690] | 61 |
| CSCC[C@H](NC(=O)c1ccc(NC(=O)c2cccc(N(C)C)c2)cc1-c1ccccc1)C(=O)O [Example 752] | 58 |
| CSCC[C@H](NC(=O)c1ccc(CNc2cccc(CCC(=O)O)c2)cc1-c1ccccc1)C(=O)O [Example 685] | 55 |

Same assay, conditions: Table 2; 1 × 10^-6 M

| Molecule | % inhibition at 1 × 10^-6 M [%] |
| --- | --- |
| CSCC[C@H](NC(=O)c1ccc(C=Cc2ccccc2Oc2ccccc2)cc1-c1ccccc1C)C(=O)[O-].[Li+] [Example 453] | 90 |
| CSCCC(NC(=O)c1ccc(CNC(CO)c2ccccc2)cc1-c1ccccc1)C(=O)O (stereo not shown) [Example 657] | 32 |
| CSCC[C@H](NC(=O)c1ccc(C=CCc2ccccc2)cc1-c1ccccc1C)C(=O)O [Example 469] | 92 |
| CSCC[C@H](NC(=O)c1ccc(CNc2ccc(N3CCCCC3)cc2)cc1-c1ccccc1C)C(=O)O [Example 862] | 95 |
| CSCC[C@H](NC(=O)c1ccc(S(=O)(=O)NC2CCN(Cc3ccccc3)CC2)cc1-c1ccccc1C)C(=O)O [Example 773] | 41 |
| CSCC[C@H](NC(=O)c1ccc(NCC(CO)(Cc2ccccc2)Cc2ccccc2)cc1-c1ccccc1C)C(=O)O [Example 475] | 21 |
| CSCCC(NC(=O)c1ccc(NC(=O)c2cncnc2)cc1-c1ccccc1)C(=O)O (stereo not shown) [Example 219] | 56 |
| CSCC[C@H](NC(=O)c1ccc(CNC(CO)Cc2ccc(Cl)cc2)cc1-c1ccccc1)C(=O)O (stereo partly shown) [Example 662] | 68 |
| CSCC[C@H](NC(=O)c1ccc(NC(=O)C2=C(C(F)(F)F)C=CNC2)cc1-c1ccccc1)C(=O)O [Example 283] | 98 |
| CSCC[C@H](NC(=O)c1ccc(CN[C@H](/C=C\CC(C)C)CC2CCCCC2)cc1-c1ccccc1)C(=O)O [Example 666] | 82 |
| CSCC[C@H](NC(=O)c1ccc(/C=C/c2cccc3ccccc23)cc1-c1ccccc1C)C(=O)O [Example 466] | 93 |
| CSCC[C@H](NC(=O)c1ccc(C=Cc2ccccc2Cc2ccccc2)cc1-c1ccccc1C)C(=O)[O-].[Li+] [Example 457] | 92 |
| Cc1ccccc1-c1cc(CN(C2CC2)C2(CC3CCCCC3)CCC2)ccc1C(=O)N[C@@H](CCS(C)(=O)=O)C(=O)O [Example 334] | 93 |
| CSCC[C@H](NC(=O)c1ccc(CCc2cccc3ccccc23)cc1-c1ccccc1C)C(=O)[O-].[Li+] [Example 467] | 97 |
| COc1ccc(CCNS(=O)(=O)c2ccc(C(=O)N[C@@H](CCSC)C(=O)O)c(-c3ccccc3C)c2)cc1OC [Example 776] | 36 |
| CCSC[C@H](CC1CCCCC1)NCc1ccc(C(=O)N(C)[C@@H](CCSC)C(=O)O)c(-c2ccccc2C)c1 [Example 765] | 76 |
| Cc1ccccc1-c1cc(CCc2cccc(Oc3ccccc3)c2)ccc1C(=O)N[C@@H](CC[S+](C)[O-])C(=O)O (stereo partly shown) [Example 460] | 88 |
| CCOC(=O)N1CCC(NCc2ccc(C(=O)N[C@@H](CCSC)C(=O)[O-])c(-c3ccccc3C)c2)CC1.[Li+] [Example 806] | 72 |
| CSCC[C@H](NC(=O)c1ccc(CN2CCCC(OCc3ccccc3)C2)cc1-c1ccccc1C)C(=O)O (stereo partly shown) [Example 989] | 88 |
| CSCC[C@H](NC(=O)c1ccc(CN(C(=O)c2ccccc2)C(CC2CCCCC2)CC2CCCCC2)cc1-c1ccccc1C)C(=O)O [Example 910] | 42 |

Same assay, conditions: Table 3; 1 × 10^-7 M

| Molecule | % inhibition at 1 × 10^-7 M [%] |
| --- | --- |
| N-[4-(2-adamantan-1-ylpropoxy)-2-(2-methylphenyl)benzoyl]methionine, lithium salt [Example 563] | 95 |
| COc1ccccc1N(Cc1ccccc1)Cc1ccc(C(=O)N[C@@H](CCSC)C(=O)O)c(-c2ccccc2C)c1 [Example 839] | 63 |
| CSCC[C@H](NC(=O)c1ccc(CN(c2ccccc2)S(=O)(=O)c2ccc(C)cc2)cc1-c1ccccc1C)C(=O)O [Example 770] | 91 |
| CCSC[C@H](CC1CCCCC1)N(Cc1ccc(C(=O)N[C@@H](CCSC)C(=O)O)c(-c2ccccc2C)c1)S(=O)(=O)c1ccccc1 [Example 951] | 71 |

Same assay, conditions: Table 4; 1 × 10^-8 M

| Molecule | % inhibition at 1 × 10^-8 M [%] |
| --- | --- |
| CSCC[C@H](NC(=O)c1ccc(CN[C@H](CSC2CCCCC2)CC2CCCCC2)cc1-c1ccccc1C)C(=O)O [Example 766] | 95 |
| CCCCN(CCc1ccccc1)Cc1ccc(C(=O)N[C@@H](CCSC)C(=O)O)c(-c2ccccc2C)c1 [Example 928] | 84 |

Same assay, conditions: Table 6; ** footnote 0.01 μM (title: 0.01 mM)

| Molecule | % inhibition at 0.01 μM (**) [%] |
| --- | --- |
| CSCC[C@H](NC(=O)c1ccc(CN(CCF)CCC2CCCCC2)cc1-c1ccccc1C)C(=O)O [Example 1094] | 96 |

Same assay, conditions: read-out: % inhibition at 0.01 μM (**); Table 6; ** footnote 0.01 μM (title: 0.01 mM)

| Molecule | inhibition at 0.01 µM [%] |
| --- | --- |
| CC[S+]([O-])C[C@H](CC1CCCCC1)OCc1ccc(C(=O)N[C@@H](CCSC)C(=O)O)c(-c2ccccc2C)c1 (stereo partly shown) [Example 1310, Lithium Salt] | 90 |
| CSCC[C@H](NC(=O)c1ccc(CO[C@@H](CC2CCCCC2)C(=O)N2CC[S+]([O-])CC2)cc1-c1ccccc1C)C(=O)O [Example 1055, N-[4-(3-cyclohexyl-N-thiomorpholin-S-oxide-4-ylpropion-2-yloxymethyl)-2-(2-methylphenyl)benzoyl]methionine, lithium salt] | 85 |

Same assay, conditions: read-out: % inhibition at 0.1 μM (*); Table 6; * footnote 0.1 μM (title: 0.1 mM)

| Molecule | inhibition at 0.1 µM [%] |
| --- | --- |
| CSCC[C@H](NC(=O)c1ccc(COC(CC2CCCCC2)c2sc(C)nc2C)cc1-c1ccccc1C)C(=O)O (stereo partly shown) [Example 1096, N-[4-(1-(2,4-dimethylthiazol-5-yl)-2-cyclohexylethoxy)methyl)-2-(2-methylphenyl)benzoyl]methionine lithium salt] | 86 |
| CSCC[C@H](NC(=O)c1ccc(COC(c2ccccc2)C2CCN(S(=O)(=O)c3ccccc3)CC2)cc1-c1ccccc1C)C(=O)O (stereo partly shown) [Example 1252, N-[4-(1-(4-(N-phenylsulfonyl)piperidinyl)benzyloxymethyl-2-(2-methylphenyl)benzoyl]methioninelithium salt] | 84 |
| CSCC[C@H](NC(=O)c1ccc(CCC(=O)OC2CCCCC2)cc1-c1ccccc1C)C(=O)O [Example 1152, N-[4-(cyclohexyloxycarbonylethyl)-2-(2-methylphenyl)benzoyl]methionine] | 96 |

Same assay, conditions: read-out: % inhibition at 1 × 10^-6 M

| Molecule | inhibition at 1 µM [%] |
| --- | --- |
| CSCC[C@H](NC(=O)c1ccc(COCCc2ccccc2)cc1-c1ccccc1C)C(=O)O [Example 587, N-[4-(2-phenylethoxymethyl)-2-(2-methylphenyl)benzoyl]methionine lithium salt] | 97 |
| CSCC[C@H](NC(=O)c1ccc(CSCc2ccc(C)cc2)cc1-c1ccccc1C)C(=O)O [Example 556, N-[4-(4-methylbenzyl)thiomethyl-2-(2-methylphenyl)benzoyl]methionine, lithium salt] | 99 |

Same assay, conditions: read-out: % inhibition at 1 × 10^-6 M; Table 2; 1 × 10^-6 M

| Molecule | inhibition at 1 µM [%] |
| --- | --- |
| CSCC[C@H](NC(=O)c1ccc(OCCCCOc2ccccc2)cc1-c1ccccc1C)C(=O)O [Example 568, N-[4-(3-phenoxy)butoxy-2-(2-methylphenyl)benzoyl]methionine. lithium salt] | 93 |

Same assay, conditions: read-out: % inhibition at 1 × 10^-7 M

| Molecule | inhibition at 0.1 µM [%] |
| --- | --- |
| CSCC[C@H](NC(=O)c1ccc(COCc2ccc(Cl)cc2)cc1-c1ccccc1C)C(=O)O [Example 933, N-[4-(4-chlorobenzyloxymethyl)-2-(2-methylphenyl)benzoyl]methionine lithium salt] | 91 |
| CSCC[C@H](NC(=O)c1ccc(COCc2ccc(-c3ccccc3C(F)(F)F)o2)cc1-c1ccccc1C)C(=O)O [Example 438, N-[4-(5-(2-trifluoromethylphenyl)furan-2-ylmethoxymethyl)-2-(2-methylphenyl)benzoyl]methionine lithium salt] | 90 |
| CSCC[C@H](NC(=O)c1ccc(COCCC2CCCCC2)cc1-c1ccccc1C)C(=O)O [Example 594, N-[4-(2-cyclohexylethoxymethyl)-2-(2-methylphenyl)benzoyl]methionine lithium salt] | 95 |

Same assay, conditions: read-out: % inhibition at 1 × 10^-7 M; Table 3; 1 × 10^-7 M

| Molecule | inhibition at 0.1 µM [%] |
| --- | --- |
| C=C(C)C1CC=C(COCc2ccc(C(=O)N[C@@H](CCSC)C(=O)O)c(-c3ccccc3C)c2)CC1 (stereo partly shown) [Example 521, N-[4-(4-isoprop-2-enylcyclohexen-1-yl)methoxymethyl-2-(2-methylphenyl)benzoyl]methionine lithium salt] | 94 |

Same assay, conditions: read-out: % inhibition at 1 × 10^-8 M

| Molecule | inhibition at 0.01 µM [%] |
| --- | --- |
| CSCC[C@H](NC(=O)c1ccc(COCc2cc(-c3ccc(Cl)cc3)co2)cc1-c1ccccc1C)C(=O)O [Example 904, N-[4-(4-(4-chlorophenyl)furan-2-ylmethoxymethyl)-2-(2-methylphenyl)benzoyl]methionine lithium salt] | 85 |
| CCCCC(OCc1ccc(C(=O)N[C@@H](CCSC)C(=O)O)c(-c2ccccc2C)c1)c1ccc(-c2ccc(Cl)cc2)o1 (stereo partly shown) [Example 826, N-[4-(1-(5-(4-chlorophenyl)furan-2-yl)pentyloxymethyl)-2-(2-methylphenyl)benzoyl]methionine lithium salt] | 92 |
